Data reported in ChEMBL document CHEMBL1201862, “PubChem BioAssay data set” (2004).
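Results reflect a 48-hour exposure of cells in 96-well plates to compound at five concentrations. At the GI50, growth is halved.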 Active and inactive are the calls of the source. Rule as the data show it: active = GI50 up to about 1.1 µM and inactive = higher.

Tests used:
Experiment in all cases: NCI tumour cell line growth inhibition, 48 h
OVCAR-3 = system: OVCAR-3
MOLT-4 = system: MOLT-4
HOP-92 = system: HOP-92
HL-60 = system: HL-60
HCT-15 = system: HCT-15
SF-539 = system: SF-539
SF-295 = system: SF-295
NCI-H226 = system: NCI-H226
M14 = system: M14
TK-10 = system: TK-10
NCI-H460 = system: NCI-H460
EKVX = system: EKVX
LOX IMVI = system: LOX IMVI
SN12C = system: SN12C
DMS-114 = system: DMS-114
SK-MEL-5 = system: SK-MEL-5
HOP-62 = system: HOP-62
OVCAR-4 = system: OVCAR-4
M19-MEL = system: M19-MEL
ACHN = system: ACHN
K562 = system: K562
SR = system: SR
COLO 205 = system: COLO 205
KM12 = system: KM12
IGROV-1 = system: IGROV-1
SF-268 = system: SF-268
DLD-1 = system: DLD-1
SK-MEL-28 = system: SK-MEL-28
HCC 2998 = system: HCC 2998
SNB-78 = system: SNB-78
UACC-257 = system: UACC-257
SW-620 = system: SW-620
HT-29 = system: HT-29
KM-20L2 = system: KM-20L2
Malme-3M = system: Malme-3M
CAKI-1 = system: CAKI-1
SK-MEL-2 = system: SK-MEL-2
LXFL 529 = system: LXFL 529
OVCAR-5 = system: OVCAR-5
CCRF-CEM = system: CCRF-CEM
RXF 631 = system: RXF 631
SK-OV-3 = system: SK-OV-3
OVCAR-8 = system: OVCAR-8
UO-31 = system: UO-31
A549 = system: A549
HCT-116 = system: HCT-116
UACC-62 = system: UACC-62
SNB-19 = system: SNB-19
786-0 = system: 786-0
U-251 = system: U-251
NCI-H23 = system: NCI-H23
HOP-18 = system: HOP-18
RXF 393 = system: RXF 393
RPMI-8226 = system: RPMI-8226
NCI-H522 = system: NCI-H522
SNB-75 = system: SNB-75
A498 = system: A498
DMS-273 = system: DMS-273

Question: Which GI50 (OVCAR-3) does the source give for `CC(C)(C)C1=CC(CCC(=O)Nc2ccccc2[N+](=O)[O-])=NC(S)N1` (stereo not drawn) here?
Answer: > 100 µM (inactive)

Question: What about the GI50 (MOLT-4) of the same molecule?
Answer: > 100 µM (inactive)

Question: And the GI50 (HOP-92)?
Answer: > 100 µM (inactive)

Question: And the GI50 (HL-60)?
Answer: > 100 µM (inactive)

Question: And the GI50 (HCT-15)?
Answer: > 100 µM

Question: And the GI50 (SF-539)?
Answer: > 100 µM (inactive)

Question: And the GI50 (SF-295)?
Answer: > 100 µM (inactive)

Question: What about the GI50 (NCI-H226) of the same molecule?
Answer: > 100 µM (inactive)

Question: And the GI50 (M14)?
Answer: > 100 µM (inactive)

Question: And the GI50 (TK-10)?
Answer: > 100 µM (inactive)

Question: And the GI50 (NCI-H460)?
Answer: > 100 µM (inactive)

Question: And the GI50 (EKVX)?
Answer: > 100 µM (inactive)

Question: And the GI50 (LOX IMVI)?
Answer: > 100 µM (inactive)

Question: What about the GI50 (SN12C) of the same molecule?
Answer: > 100 µM (inactive)

Question: What about the GI50 (DMS-114) of the same molecule?
Answer: > 100 µM (inactive)

Question: And the GI50 (SK-MEL-5)?
Answer: > 100 µM (inactive)

Question: What about the GI50 (HOP-62) of the same molecule?
Answer: > 100 µM (inactive)

Question: And the GI50 (OVCAR-4)?
Answer: > 100 µM (inactive)

Question: And the GI50 (M19-MEL)?
Answer: > 100 µM (inactive)

Question: And the GI50 (ACHN)?
Answer: > 100 µM (inactive)

Question: What about the GI50 (K562) of the same molecule?
Answer: > 100 µM (inactive)

Question: And the GI50 (SR)?
Answer: > 100 µM (inactive)

Question: And the GI50 (COLO 205)?
Answer: > 100 µM (inactive)

Question: What about the GI50 (KM12) of the same molecule?
Answer: > 100 µM (inactive)

Question: And the GI50 (IGROV-1)?
Answer: > 100 µM (inactive)

Question: What about the GI50 (SF-268) of the same molecule?
Answer: > 100 µM (inactive)

Question: And the GI50 (DLD-1)?
Answer: > 100 µM (inactive)

Question: And the GI50 (SK-MEL-28)?
Answer: > 100 µM (inactive)

Question: What about the GI50 (HCC 2998) of the same molecule?
Answer: > 100 µM (inactive)

Question: What about the GI50 (SNB-78) of the same molecule?
Answer: > 100 µM (inactive)

Question: And the GI50 (UACC-257)?
Answer: > 100 µM (inactive)

Question: And the GI50 (SW-620)?
Answer: > 100 µM (inactive)

Question: And the GI50 (HT-29)?
Answer: > 100 µM (inactive)

Question: And the GI50 (KM-20L2)?
Answer: > 100 µM (inactive)

Question: What about the GI50 (Malme-3M) of the same molecule?
Answer: > 100 µM (inactive)

Question: What about the GI50 (CAKI-1) of the same molecule?
Answer: > 100 µM (inactive)

Question: What about the GI50 (SK-MEL-2) of the same molecule?
Answer: > 100 µM (inactive)

Question: And the GI50 (LXFL 529)?
Answer: > 100 µM (inactive)

Question: What about the GI50 (OVCAR-5) of the same molecule?
Answer: > 100 µM (inactive)

Question: And the GI50 (CCRF-CEM)?
Answer: > 100 µM (inactive)

Question: And the GI50 (RXF 631)?
Answer: > 100 µM (inactive)

Question: And the GI50 (SK-OV-3)?
Answer: > 100 µM (inactive)

Question: And the GI50 (OVCAR-8)?
Answer: > 100 µM (inactive)

Question: And the GI50 (UO-31)?
Answer: > 100 µM (inactive)

Question: And the GI50 (A549)?
Answer: > 100 µM (inactive)

Question: And the GI50 (HCT-116)?
Answer: > 100 µM (inactive)

Question: What about the GI50 (UACC-62) of the same molecule?
Answer: > 100 µM (inactive)

Question: What about the GI50 (SNB-19) of the same molecule?
Answer: > 100 µM (inactive)

Question: What about the GI50 (786-0) of the same molecule?
Answer: > 100 µM (inactive)

Question: And the GI50 (U-251)?
Answer: > 100 µM (inactive)

Question: What about the GI50 (NCI-H23) of the same molecule?
Answer: > 100 µM (inactive)

Question: And the GI50 (HOP-18)?
Answer: > 100 µM (inactive)

Question: What about the GI50 (RXF 393) of the same molecule?
Answer: > 100 µM (inactive)

Question: Which GI50 (OVCAR-3) does the source give for `O=c1ccn([C@H]2CSC[C@@H](CO)C2)c(=O)[nH]1` here?
Answer: > 100 µM (inactive)

Question: And the GI50 (MOLT-4)?
Answer: > 100 µM (inactive)

Question: What about the GI50 (HOP-92) of the same molecule?
Answer: > 100 µM (inactive)

Question: What about the GI50 (HL-60) of the same molecule?
Answer: > 100 µM (inactive)

Question: What about the GI50 (HCT-15) of the same molecule?
Answer: > 100 µM

Question: What about the GI50 (SF-539) of the same molecule?
Answer: > 100 µM (inactive)

Question: And the GI50 (SF-295)?
Answer: > 10 µM (inactive)

Question: And the GI50 (NCI-H226)?
Answer: > 100 µM (inactive)

Question: What about the GI50 (M14) of the same molecule?
Answer: > 100 µM (inactive)

Question: And the GI50 (TK-10)?
Answer: > 100 µM (inactive)

Question: What about the GI50 (NCI-H460) of the same molecule?
Answer: > 100 µM (inactive)

Question: What about the GI50 (EKVX) of the same molecule?
Answer: > 100 µM (inactive)

Question: And the GI50 (LOX IMVI)?
Answer: > 100 µM (inactive)

Question: And the GI50 (SN12C)?
Answer: > 100 µM (inactive)

Question: And the GI50 (DMS-114)?
Answer: > 100 µM (inactive)

Question: And the GI50 (SK-MEL-5)?
Answer: > 100 µM (inactive)

Question: And the GI50 (HOP-62)?
Answer: > 100 µM (inactive)

Question: And the GI50 (OVCAR-4)?
Answer: > 100 µM (inactive)

Question: What about the GI50 (M19-MEL) of the same molecule?
Answer: > 100 µM (inactive)

Question: And the GI50 (ACHN)?
Answer: > 100 µM (inactive)

Question: What about the GI50 (K562) of the same molecule?
Answer: > 100 µM (inactive)

Question: What about the GI50 (RPMI-8226) of the same molecule?
Answer: > 100 µM (inactive)

Question: What about the GI50 (KM12) of the same molecule?
Answer: > 100 µM (inactive)

Question: What about the GI50 (IGROV-1) of the same molecule?
Answer: > 100 µM (inactive)

Question: What about the GI50 (SF-268) of the same molecule?
Answer: > 100 µM (inactive)

Question: And the GI50 (DLD-1)?
Answer: > 100 µM (inactive)

Question: What about the GI50 (SK-MEL-28) of the same molecule?
Answer: > 100 µM (inactive)

Question: And the GI50 (NCI-H522)?
Answer: > 100 µM (inactive)

Question: And the GI50 (HCC 2998)?
Answer: > 100 µM (inactive)

Question: And the GI50 (SNB-78)?
Answer: > 100 µM (inactive)

Question: What about the GI50 (UACC-257) of the same molecule?
Answer: > 100 µM (inactive)

Question: What about the GI50 (SNB-75) of the same molecule?
Answer: 56.4 µM (inactive)

Question: What about the GI50 (SW-620) of the same molecule?
Answer: > 100 µM (inactive)

Question: What about the GI50 (HT-29) of the same molecule?
Answer: > 100 µM (inactive)

Question: What about the GI50 (KM-20L2) of the same molecule?
Answer: > 100 µM (inactive)

Question: What about the GI50 (A498) of the same molecule?
Answer: > 100 µM (inactive)

Question: What about the GI50 (Malme-3M) of the same molecule?
Answer: > 100 µM (inactive)

Question: And the GI50 (CAKI-1)?
Answer: > 100 µM (inactive)

Question: What about the GI50 (SK-MEL-2) of the same molecule?
Answer: > 100 µM (inactive)

Question: And the GI50 (LXFL 529)?
Answer: > 100 µM (inactive)

Question: What about the GI50 (OVCAR-5) of the same molecule?
Answer: > 100 µM (inactive)

Question: And the GI50 (CCRF-CEM)?
Answer: > 100 µM (inactive)

Question: What about the GI50 (RXF 631) of the same molecule?
Answer: > 100 µM (inactive)

Question: What about the GI50 (SK-OV-3) of the same molecule?
Answer: > 100 µM (inactive)

Question: What about the GI50 (OVCAR-8) of the same molecule?
Answer: > 100 µM (inactive)

Question: And the GI50 (UO-31)?
Answer: > 100 µM (inactive)

Question: And the GI50 (A549)?
Answer: > 100 µM (inactive)

Question: What about the GI50 (HCT-116) of the same molecule?
Answer: > 100 µM (inactive)

Question: What about the GI50 (UACC-62) of the same molecule?
Answer: > 100 µM (inactive)

Question: What about the GI50 (DMS-273) of the same molecule?
Answer: > 100 µM (inactive)

Question: What about the GI50 (SNB-19) of the same molecule?
Answer: > 100 µM (inactive)

Question: And the GI50 (786-0)?
Answer: > 100 µM (inactive)

Question: What about the GI50 (U-251) of the same molecule?
Answer: > 100 µM (inactive)

Question: And the GI50 (NCI-H23)?
Answer: > 100 µM (inactive)

Question: And the GI50 (HOP-18)?
Answer: > 100 µM (inactive)
